≈ marks a conversion by molar mass, not a printed value.
Columns and labels:
Experiment in all cases: MIC, broth microdilution
[1] = system: E. coli GC 2234; conditions: Escherichia coli
[2] = system: E. coli GC 2235; conditions: Escherichia coli
[3] = system: S. epidermidis GC 4935; conditions: Staphylococcus epidermidis
[4] = system: E. coli GC 2270; conditions: Escherichia coli
Method: (§1) Antimicrobial susceptibility testing. The in vitro activities of the antibiotics are determined by the broth microdilution method as recommended by the National Committee for Clinical Laboratory Standards (NCCLS) (1). Mueller-Hinton II broth (MHBII)(BBL Cockeysville, Md.) is the medium employed in the testing procedures. Microtiter plates containing serial dilutions of each antimicrobial agent are inoculated with each organism to yield the appropriate density (10^5 CFU/ml) in a 100 μl final volume. The plates are incubated for 18-22 hours at 35° C. in ambient air.
(§2) Representative compounds were first incubated in mouse serum for an hour prior to the in vitro testing against a panel of selected gram-positive and gram-negative bacteria strains. All compounds were also pre-incubated in water for an hour prior to testing as control. Representative compounds of Formula I were incubated in human serum prior to MIC determination.

[5] = system: E. faecalis GC 2242; conditions: Enterococcus faecalis
[6] = system: c. albicans GC 3066
[7] = system: E. coli GC 2236; conditions: Escherichia coli
[8] = system: S. pneumoniae+ GC 4465; conditions: Streptococcus pneumoniae
[9] = system: S. aureus GC 2216; conditions: Staphylococcus aureus
[10] = system: E. coli GC 2271; conditions: Escherichia coli
[11] = system: S. aureus GC 1131; conditions: Staphylococcus aureus
Method: as §1
Representative compounds were first incubated in mouse serum for an hour prior to the in vitro testing against a panel of selected gram-positive and gram-negative bacteria strains. All compounds were also pre-incubated in water for an hour prior to testing as control.

[12] = system: S. aureus GC 6335; conditions: Staphylococcus aureus
Method: as §1, §2

[13] = system: E. coli GC 2233; conditions: Escherichia coli
[14] = system: E. coli GC 1073; conditions: Escherichia coli
[15] = system: P. aeruginosa GC 2214; conditions: Pseudomonas aeruginosa
[16] = system: E. faecium GC 4556; conditions: Enterococcus faecium
[17] = system: S. pyogenes GC 4563; conditions: Streptococcus pyogenes
[18] = system: S. aureus GC 1079; conditions: Staphylococcus aureus
[19] = system: E. coli GC 4559; conditions: Escherichia coli
Method: as §1, §2

Q: Which results are given for `CN(C)c1cc(NC(=O)CN(C(=O)OCOC(=O)CCC2CCCCC2)C(C)(C)C)c(O)c2c1C[C@H]1C[C@H]3[C@H](N(C)C)C(O)=C(C(N)=O)C(=O)[C@@]3(O)C(O)=C1C2=O` [Example 63, ({[(2-{[(5aR,6aS,7S,10aS)-9-(aminocarbonyl)-4,7-bis(dimethylamino)-1,8,10a,11-tetrahydroxy-10,12-dioxo-5,5a,6,6a,7,10,10a,12-octahydrotetracen-2-yl]amino}-2-oxoethyl)(tert-butyl)amino]carbonyl}oxy)methyl 3-cyclohexylpropanoate]?
A: MIC ([1]; GC2234, pre-incubation in human serum): 64 µg/mL (≈ 80.2 µM); MIC ([1]; GC2234, pre-incubation in mouse serum): 1 µg/mL (≈ 1.25 µM); MIC ([1]; GC2234, pre-incubation in water): > 64 µg/mL; MIC ([2]; GC2235, pre-incubation in human serum): > 64 µg/mL; MIC ([2]; GC2235, pre-incubation in mouse serum): 0.5 µg/mL (≈ 0.627 µM); MIC ([2]; GC2235, pre-incubation in water): > 64 µg/mL; MIC ([3]; GC4935, pre-incubation in human serum): 2 µg/mL (≈ 2.51 µM); MIC ([3]; GC4935, pre-incubation in mouse serum): 2 µg/mL (≈ 2.51 µM); MIC ([3]; GC4935, pre-incubation in water): 4 µg/mL (≈ 5.01 µM); MIC ([4]; GC2270, pre-incubation in human serum): 64 µg/mL (≈ 80.2 µM); MIC ([4]; GC2270, pre-incubation in mouse serum): 0.5 µg/mL (≈ 0.627 µM); MIC ([4]; GC2270, pre-incubation in water): > 64 µg/mL; MIC ([5]; GC2242, pre-incubation in human serum): 1 µg/mL (≈ 1.25 µM); MIC ([5]; GC2242, pre-incubation in mouse serum): 1 µg/mL (≈ 1.25 µM); MIC ([5]; GC2242, pre-incubation in water): 1 µg/mL (≈ 1.25 µM); MIC ([6]; Candida albicans, GC3066): > 64 µg/mL; MIC ([6]; pre-incubation in human serum): >64 UG/ML; MIC ([6]; pre-incubation in mouse serum): >64 UG/ML; MIC ([7]; GC2236, pre-incubation in human serum): > 64 µg/mL; MIC ([7]; GC2236, pre-incubation in mouse serum): 1 µg/mL (≈ 1.25 µM); MIC ([7]; GC2236, pre-incubation in water): > 64 µg/mL; MIC ([8]; pre-incubation in human serum): 0.5 µg/mL (≈ 0.627 µM); MIC ([8]; pre-incubation in mouse serum): 0.5 µg/mL (≈ 0.627 µM); MIC ([8]; pre-incubation in water): 0.5 µg/mL (≈ 0.627 µM); MIC ([9]; GC2216, pre-incubation in human serum): 1 µg/mL (≈ 1.25 µM); MIC ([9]; GC2216, pre-incubation in mouse serum): 1 µg/mL (≈ 1.25 µM); MIC ([9]; GC2216, pre-incubation in water): 4 µg/mL (≈ 5.01 µM); MIC ([10]; GC2271, pre-incubation in human serum): > 64 µg/mL; MIC ([10]; GC2271, pre-incubation in mouse serum): 0.5 µg/mL (≈ 0.627 µM); MIC ([10]; GC2271, pre-incubation in water): > 64 µg/mL; MIC ([11]; GC1131, pre-incubation in human serum): 1 µg/mL (≈ 1.25 µM); MIC ([11]; GC1131, pre-incubation in mouse serum): 1 µg/mL (≈ 1.25 µM); MIC ([11]; GC1131, pre-incubation in water): 4 µg/mL (≈ 5.01 µM); MIC ([12]; GC6335, pre-incubation in human serum): 1 µg/mL (≈ 1.25 µM); MIC ([12]; GC6335, pre-incubation in mouse serum): 1 µg/mL (≈ 1.25 µM); MIC ([12]; GC6335, pre-incubation in water): 4 µg/mL (≈ 5.01 µM); MIC ([13]; GC2233, pre-incubation in human serum): > 64 µg/mL; MIC ([13]; GC2233, pre-incubation in mouse serum): 1 µg/mL (≈ 1.25 µM); MIC ([13]; GC2233, pre-incubation in water): > 64 µg/mL; MIC ([14]; GC1073, pre-incubation in human serum): > 64 µg/mL; MIC ([14]; GC1073, pre-incubation in mouse serum): 2 µg/mL (≈ 2.51 µM); MIC ([14]; GC1073, pre-incubation in water): > 64 µg/mL; MIC ([15]; GC2214, pre-incubation in human serum): > 64 µg/mL; MIC ([15]; GC2214, pre-incubation in mouse serum): 32 µg/mL (≈ 40.1 µM); MIC ([15]; GC2214, pre-incubation in water): > 64 µg/mL; MIC ([16]; GC4556, pre-incubation in human serum): 4 µg/mL (≈ 5.01 µM); MIC ([16]; GC4556, pre-incubation in mouse serum): 1 µg/mL (≈ 1.25 µM); MIC ([16]; GC4556, pre-incubation in water): 0.5 µg/mL (≈ 0.627 µM); MIC ([17]; GC4563, pre-incubation in human serum): 0.12 µg/mL (≈ 0.15 µM); MIC ([17]; GC4563, pre-incubation in mouse serum): 0.12 µg/mL (≈ 0.15 µM); MIC ([17]; GC4563, pre-incubation in water): 0.12 µg/mL (≈ 0.15 µM); MIC ([18]; GC1079, pre-incubation in human serum): 2 µg/mL (≈ 2.51 µM); MIC ([18]; GC1079, pre-incubation in mouse serum): 1 µg/mL (≈ 1.25 µM); MIC ([18]; GC1079, pre-incubation in water): 8 µg/mL (≈ 10 µM); MIC ([19]; GC4559, pre-incubation in human serum): > 64 µg/mL; MIC ([19]; GC4559, pre-incubation in mouse serum): 2 µg/mL (≈ 2.51 µM); MIC ([19]; GC4559, pre-incubation in water): > 64 µg/mL
